Results taken from PMC5672842 (Chemical Science, 2017).
Read-outs that look alike come from different tables or passages of the source. One block for each molecule: values may come before it.

Tests used:
[1] = target: β-Glucosidase (P. chrysosp.) (Phanerodontia chrysosporium, UniProt O74203); experiment: 4-nitrophenyl β-D-glucopyranoside hydrolysis, absorbance […] nm; assay type: biochemical; settings: pH 6.0, 37 °C, phosphate buffer, 10% DMSO
[2] = target: T1, α-Glucosidase (A. niger) (Aspergillus niger, UniProt P56526); experiment: 4-nitrophenyl α-D-glucopyranoside hydrolysis, absorbance […] nm; assay type: biochemical
T1 sequence (P56526 26-985): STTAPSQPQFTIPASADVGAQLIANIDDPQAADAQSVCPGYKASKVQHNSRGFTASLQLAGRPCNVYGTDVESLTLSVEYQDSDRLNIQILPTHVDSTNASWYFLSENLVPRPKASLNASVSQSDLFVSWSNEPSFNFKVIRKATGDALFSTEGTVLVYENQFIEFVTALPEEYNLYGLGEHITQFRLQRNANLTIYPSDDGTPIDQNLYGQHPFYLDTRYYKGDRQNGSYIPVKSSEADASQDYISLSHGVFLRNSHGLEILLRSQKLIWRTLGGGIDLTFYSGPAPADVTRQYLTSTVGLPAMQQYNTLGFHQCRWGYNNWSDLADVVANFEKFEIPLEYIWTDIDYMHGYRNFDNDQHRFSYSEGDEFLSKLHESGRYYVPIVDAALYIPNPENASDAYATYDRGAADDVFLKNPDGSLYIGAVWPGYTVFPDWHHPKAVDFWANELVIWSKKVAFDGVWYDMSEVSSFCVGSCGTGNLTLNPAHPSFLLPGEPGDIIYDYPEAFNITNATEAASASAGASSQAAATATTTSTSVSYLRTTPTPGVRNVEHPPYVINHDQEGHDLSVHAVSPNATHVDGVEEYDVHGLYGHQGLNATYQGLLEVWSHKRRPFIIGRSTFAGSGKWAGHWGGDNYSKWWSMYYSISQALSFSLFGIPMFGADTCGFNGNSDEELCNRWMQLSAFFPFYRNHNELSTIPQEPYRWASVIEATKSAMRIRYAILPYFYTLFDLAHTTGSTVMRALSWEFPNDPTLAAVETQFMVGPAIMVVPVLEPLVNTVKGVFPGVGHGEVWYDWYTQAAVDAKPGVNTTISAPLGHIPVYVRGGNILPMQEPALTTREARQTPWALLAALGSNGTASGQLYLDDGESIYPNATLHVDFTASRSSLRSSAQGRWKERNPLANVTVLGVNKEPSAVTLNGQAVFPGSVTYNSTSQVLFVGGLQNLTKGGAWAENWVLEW

[3] = target: α-Glucosidase (B. stearoth.); experiment: as above; assay type: biochemical, Geobacillus stearothermophilus; settings: read-out: 6; pH 6.0, 37 °C, phosphate buffer, 10% DMSO; competitive
[4] = target: β-Glucosidase (A. oryzae); experiment: 4-nitrophenyl β-D-glucopyranoside hydrolysis, absorbance […] nm; assay type: biochemical, Aspergillus oryzae; settings: read-out: 19; pH 6.0, 37 °C, phosphate buffer, 10% DMSO

Chain of β-Glucosidase (P. chrysosp.) (O74203 22-823): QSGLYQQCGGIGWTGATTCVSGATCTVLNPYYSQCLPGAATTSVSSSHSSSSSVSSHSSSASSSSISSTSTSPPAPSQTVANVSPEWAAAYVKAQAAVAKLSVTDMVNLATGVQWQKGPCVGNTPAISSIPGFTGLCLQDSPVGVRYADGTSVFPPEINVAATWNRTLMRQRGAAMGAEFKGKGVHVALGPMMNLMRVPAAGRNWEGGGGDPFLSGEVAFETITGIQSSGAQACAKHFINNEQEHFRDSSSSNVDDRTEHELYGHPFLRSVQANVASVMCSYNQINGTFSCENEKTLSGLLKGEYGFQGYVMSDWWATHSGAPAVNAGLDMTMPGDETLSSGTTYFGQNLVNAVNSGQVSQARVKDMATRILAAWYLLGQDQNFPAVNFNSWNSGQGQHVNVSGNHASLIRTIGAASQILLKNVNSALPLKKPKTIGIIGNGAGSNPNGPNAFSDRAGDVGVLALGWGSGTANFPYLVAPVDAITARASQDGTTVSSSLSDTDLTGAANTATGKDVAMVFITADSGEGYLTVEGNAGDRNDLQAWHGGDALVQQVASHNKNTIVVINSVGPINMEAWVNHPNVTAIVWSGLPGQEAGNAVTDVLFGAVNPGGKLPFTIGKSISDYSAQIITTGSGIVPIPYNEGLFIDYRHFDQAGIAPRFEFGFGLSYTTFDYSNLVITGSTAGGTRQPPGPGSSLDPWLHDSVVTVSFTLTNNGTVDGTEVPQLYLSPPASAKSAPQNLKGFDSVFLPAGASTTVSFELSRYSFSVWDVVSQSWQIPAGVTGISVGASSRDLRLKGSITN

Ki ([1]; read-out: 15): 0.0103 µM
SMILES: OC[C@@H]1[C@@H](O)[C@H](O)[C@@H](O)CN1CCCc1c2ccccc2c(Cl)c2ccccc12 [compound 15, 1-(3-(10-Chloroanthracen-9-yl)propyl)-1-deoxynojirimycin]

Ki ([1]; read-out: 12): 0.0062 µM
SMILES: OC[C@@H]1[C@@H](O)[C@H](O)[C@@H](O)CN1CCc1c2ccccc2c(Cl)c2ccccc12 [compound 12, 1-(2-(10-Chloroanthracen-9-yl)ethyl)-1-deoxynojirimycin]

Ki ([1]; read-out: 6, competitive): 2.7 µM
Ki [2]: 1.04 µM
Ki [3]: 93 µM
SMILES: OC[C@@H]1[C@@H](O)[C@H](O)[C@@H](O)CN1Cc1c2ccccc2c(Cl)c2ccccc12 [compound 6, N-(10-Chloro-9-anthracenemethyl)-1-deoxynojirimycin]

Ki ([1]; read-out: 19): 24.3 µM
Ki [4]: 169 µM
Ki [2]: 14.4 µM
SMILES: O=C1[C@H](O)[C@@H](O)[C@H](O)[C@@H](CO)N1Cc1c2ccccc2c(Cl)c2ccccc12 [compound 19, N-(10-Chloro-9-anthracenemethyl)-D-glucono-δ-lactam]
